Structures are written as SMILES.

The values below come from patent publication US20210087159A1, “TETRAHYDROCANNABINOLIC- CA[…] DERIVATIVES AND USES THEREOF” (AL&AM […]., priority 2018, published 2021).

Common to all, as to format: cell-based
The subject of one assay is TNF-α. Briefly: LPS induced cytokine release assay, TNF-α by ELISA in PBMCs. The note with it: human PBMCs; for TNF-α: 72 h; for change of TNF-α expression in LPS-treated cells: tested concentrations of 1 M and 10 M (so in the source). The text has this: (§1) This study was aimed to test the effect of 12 compounds (THCA, Ia1, Ia5, Ia6, Ia9, Ia11, Ia15, Ia17, Ia24, Ia25, Ia27, and Ia28) on human peripheral blood mononuclear cells (PBMCs) challenged by lipopolysaccharide (LPS) through monitoring multiple inflammatory endpoints.
(§2) Blood samples were collected from healthy volunteers according to protocols that have been reviewed and approved by the Chempartner Institutional Ethic Committee (IEC) upon signing an Informed Consent Form (ICF).
(§3) Fresh PBMCs were isolated and seeded into 96-well plate, and diluted solutions of the tested compounds and 0.1 μg/mL LPS were then added (in triplicates). To serve as control, 3 wells with PBMCs only, 3 wells with 0.1 μg/mL LPS, and 2 wells with 1 μg/mL dexamethasone (Dex) and 0.1 μg/mL LPS were included. After 72 hours incubation, supernatant was collected for tumor necrosis factor-α (TNF-α) measurement by enzyme-linked immunosorbent assay (ELISA), and cell pellets were harvested for cell proliferation measurement by CellTiter-Glo® Luminescent Cell Viability Assay (CTG).
(§4) The human blood sample from an individual donor was diluted by the same volume of sterile phosphate buffered solution (PBS) and mixed sufficiently by gentle shake. 15 mL Lymphoprep™ medium was transferred into a new 50 mL centrifuge tube, and the diluted blood sample (30 mL) was then carefully added onto the surface of the medium, which consequently contained Ficoll 400 and blood in a volume ratio of 1:2. Four interfaces were observed after centrifugation, which are, from top to bottom, layers of plasma, mononuclear cells, Ficoll medium, and red blood cells (RBCs). Plasma was absorbed, and mononuclear cells were then transferred into another new sterile centrifuge tube. Then, sterile PBS buffer was added into the collected PBMCs for washing, at a volume ratio of 3:1. PBMCs were washed with 5-10 mL PBS twice before cell counting with cytometer. Cells were centrifuged at 350×g, for 10 min, at 20° C. with the acceleration (5) and deceleration (5) settings during the centrifugation. The cells were resuspended with RPMI 1640 complete medium (containing 10% FBS) for assay, and the density was adjusted with RPMI 1640 complete medium to the final concentration of 2E6 cells/mL. Cells suspension of the PBMCs (100 μL/well) were seeded into 96-well plate (#3903).
(§5) Diluted solutions of the tested compounds were prepared with RPMI 1640 complete medium according to the following layout. Compounds were prepared at 5-fold of concentration (50 μM), and then were diluted to the working concentration of 10 μM with RPMI 1640 complete medium and made 10-fold serially dilution (2 points). The diluted compounds (50 μL/well) were added to the indicated wells, and the plate was incubated at 37° C., 5% CO2, for 72 h.
(§6) LPS (0.1 μg/mL, 100 μL) was added into each well. Dex (1 μg/mL) was included as a positive control. Plate was incubated at 37° C., 5% CO2 for 72 h. Supernatant was collected to measure TNF-α by ELISA. Cell proliferation was detected by CTG.

In assay [1] the test system is human peripheral blood mononuclear cells (PBMCs). The assay can be described thus: Cell proliferation of LPS-challenged PBMCs by CellTiter-Glo (CTG). The following applies: human PBMCs.
From the text: as §1, §2, §3, §4, §5, §6
(ATP-based viability assays read luminescence as a measure of living cells.)

The subject of assay [2] is T47D, breast ductal carcinoma. The assay can be described thus: CellTiter-Glo cell viability assay, cancer cell cytotoxicity/anti-proliferation panel (Chempartner). The note with it: Table 5, T47D cells, 72 hours; for IC50: Homo sapiens, read-out: AbsIC50; for Inhibition %: 10 μM starting, 10-pt, 3-fold dilution. How it is done:
In this study, the biological activity of certain compounds of the present invention on cancer cell cytotoxicity/anti-proliferation panel was tested using the CellTiter-Glo® cell viability assay. The compounds were dissolved in DMSO to make 10 mM solution.
The cell lines tested were all selected from the Chempartner's cell collection and included: Caco-2 ATCC colon adenocarcinoma; TE-6 RIKEN esophagus, carcinoma; PC-3 ATCC prostate adenocarcinoma; T47D, breast ductal carcinoma; U251, brain human glioma; A549, lung carcinoma; OMP-2, multiple myeloma; SK-HEP-1, liver adenocarcinoma; PANC-1, pancreas ductal carcinoma; AsPC-1, pancreas, ductal carcinoma; and U-87 MG, brain glioblastoma.
For the assays described herein, absolute inhibition of cells growth (%) and absolute IC50 (Abs IC50; […]) were used to derive a value that can be used to compare results within and across runs in the same assay, as well as between different assays.
• a. Prepare complete medium: Add FBS and appropriate additives according to the information sheet provided by the vendor. Mix gently. • b. Check the cell name and complete medium and passage number marked on the flask. For adherent cell lines, refer to c to k. For suspension cell lines, refer to g to k. • c. Remove and discard culture medium using a vacuum pump. • d. Briefly rinse the cell layer with 0.25% (w/v) trypsin-0.038% (w/v) EDTA solution to remove all traces of serum that contains trypsin inhibitor. • e. Add 3.0 ml of trypsin-EDTA solution to flask and observe cells under an inverted microscope until cell layer is dispersed. • f. Add 8.0 ml of complete growth medium and aspirate cells by gently pipetting. • g. Transfer the cell suspension to a centrifuge tube and centrifuge at 800-1000 rpm for 3-5 minutes. • h. Discard the supernatant using a vacuum pump. • i. Add appropriate volume of complete medium. Suspend the cell pellet by gently pipetting. • j. Count the cell numbers with Vi-cell XR and adjust cells to appropriate density. • k. Add 100 μL of cell suspension to 96-well opaque-walled clear bottom plates according to the planned plate layout and place the plates in the CO2 incubator overnight. • l. Plate layout:
• Plate preparation of testing articles. 10 mM stock solution of each one of the compounds (provided as powder) was prepared in DMSO. […] 0.5 μL of each of the diluted compounds was transferred to the wells containing 100 μL of the culture medium. The total dilution was 200 fold. Cells were incubated with the compounds for 72 hours at 5% CO2, 37° C.
• Thaw the CellTiter-Glo buffer and equilibrate to room temperature prior to use. • Equilibrate the lyophilized CellTiter-Glo substrate to room temperature prior to use. • Transfer the appropriate volume of CellTiter-Glo buffer into the amber bottle containing CellTiter-Glo substrate to reconstitute the lyophilized enzyme/substrate mixture. This forms the CellTiter-Glo reagent. • Mix by gently vortexing, swirling or by inverting the contents to obtain a homogeneous solution. The CellTiter-Glo substrate should go into solution easily in less than one minute.
• Observe the cell morphology under an inverted microscope after corresponding treatment. • Equilibrate the plate and its contents to room temperature for approximately 30 minutes. • Add 100 μL of CellTiter-Glo reagent to the assay plate by Multidrop Combi instrument. • Mix contents for 10 minutes on an orbital shaker to induce cell lysis. • Allow the plate to incubate at room temperature for 10 minutes to stabilize luminescent signal. • Paste the clear bottom with white back seal and record luminescence with Enspire. The settings should be: Luminescence, measurement time 0.1 ms.
Inhibition (%) and absolute IC50 (μM) of each compound was calculated with XLFit curve fitting software that is compatible to Activity Base.

Setting [3] is: compound 1 μM + 0.1 μg/mL LPS, ELISA (LPS control 18.16).
The mark [4] stands for this setting: compound 10 μM + 0.1 μg/mL LPS, ELISA (LPS control 18.16).
Setting [5] is: compound 1 μM + 0.1 μg/mL LPS, 72 h (LPS control 84.50).
Where [6] appears, read: compound 10 μM + 0.1 μg/mL LPS, 72 h (LPS control 84.50).

For `CCCCCc1cc2c(c(O)c1C(N)=O)[C@@H]1C=C(C)CC[C@H]1C(C)(C)O2` [Ia1, (6aR,0aR)-1-hydroxy-6,6,9-trimethyl-3-pentyl-6a,7,8,10a-tetrahydro-6H-benzo[c]chromene-2-carboxamide], the TNF-α in the assay with TNF-α (setting [3]) was determined as 16.30 pg/mL; in the assay with TNF-α (setting [4]) it was 11.85 pg/mL. Moreover, the results for the CTG signal in assay [1] (setting [5]) and in assay [1] (setting [6]) were 74.10 10^4 and 70.03 10^4, respectively.
Regarding `CCCCCc1cc2c(c(O)c1C(=O)Nc1ccc(N3CCOCC3)cc1)[C@@H]1C=C(C)CC[C@H]1C(C)(C)O2` [Ia17, (6aR,0aR)-1-hydroxy-6,6,9-trimethyl-N-(4-morpholinophenyl)-3-pentyl-6a,7,8,10a-tetrahydro-6H-benzo[c]chromene-2-carboxamide], the TNF-α came to 16.44 pg/mL with TNF-α (setting [3]) and 24.59 pg/mL in the assay with TNF-α (setting [4]). Moreover, the “change of TNF-α expression in LPS-treated cells” value (“change of TNF-α expression” below) in the assay on TNF-α is “increased TNF-α expression”. Moreover, the CTG signal in assay [1] (setting [5]) is reported as 74.83 10^4; in assay [1] (setting [6]), 72.61 10^4.
Consider `CCCCCc1cc2c(c(O)c1C(=O)NCC1CC1)[C@@H]1C=C(C)CC[C@H]1C(C)(C)O2` [Ia5, (6aR,0aR)—N-(cyclopropylmethyl)-1-hydroxy-6,6,9-trimethyl-3-pentyl-6a,7,8,10a-tetrahydro-6H-benzo[c]chromene-2-carboxamide], for which the values for the TNF-α with TNF-α (setting [3]) and in the assay on TNF-α (setting [4]) were 19.60 pg/mL and 32.33 pg/mL, respectively. Besides, the “change of TNF-α expression” value with TNF-α is on record as “increased TNF-α expression”. For the same compound, the CTG signal was 74.73 10^4 in assay [1] (setting [5]) and 76.26 10^4 in assay [1] (setting [6]). In addition, the IC50 in assay [2] was greater than 10 µM. In assay [2], this compound yielded an Inhibition % of 7.89%.
With `CCCCCc1cc2c(c(O)c1CNCCCN1CCOCC1)[C@@H]1C=C(C)CC[C@H]1C(C)(C)O2` [Ia21, (6aR,10aR)-6,6,9-trimethyl-2-(((3-morpholinopropyl)amino)methyl)-3-pentyl-6a,7,8,10a-tetrahydro-6H-benzo[c]chromen-1-ol], in assay [2], the IC50 was greater than 10 µM and the Inhibition % is reported as 21.68%.
For `CCCCCc1cc2c(c(O)c1C(=O)NCCOC)[C@@H]1C=C(C)CC[C@H]1C(C)(C)O2` [Ia4, (6aR,0aR)-1-hydroxy-N-(2-methoxyethyl)-6,6,9-trimethyl-3-pentyl-6a,7,8,10a-tetrahydro-6H-benzo[c]chromene-2-carboxamide], in that order: greater than 10 µM and 3.13%.
On to `CCCCCc1cc2c(c(O)c1C(=O)NCc1ccncc1)[C@@H]1C=C(C)CC[C@H]1C(C)(C)O2` [Ia11, 1-hydroxy-6,6,9-trimethyl-3-pentyl-N-(pyridin-4-ylmethyl)-6a,7,8,10a-tetrahydro-6H-benzo[c]chromene-2-carboxamide], for which the TNF-α was found to be 28.40 pg/mL in the assay on TNF-α (setting [3]) and 15.39 pg/mL with TNF-α (setting [4]). Moreover, the “change of TNF-α expression” value in the assay with TNF-α is given as “decreased TNF-α expression”. Further, the CTG signal is 72.49 10^4 in assay [1] (setting [5]) and 74.91 10^4 in assay [1] (setting [6]). Further, in assay [2], the IC50 was greater than 10 µM. Also, the Inhibition % in assay [2] was determined as 15.80%.
In the case of `CCCCCc1cc2c(c(O)c1C(=O)S)[C@@H]1C=C(C)CC[C@H]1C(C)(C)O2` [Ia25, (6aR,0aR)-1-hydroxy-6,6,9-trimethyl-3-pentyl-6a,7,8,10a-tetrahydro-6H-benzo[c]chromene-2-carbothioic S-acid], the TNF-α is 42.50 pg/mL in the assay with TNF-α (setting [3]) and 36.82 pg/mL with TNF-α (setting [4]). Also, in the assay on TNF-α, the “change of TNF-α expression” value is listed as “decreased TNF-α expression”. In addition, the figures for the CTG signal in assay [1] (setting [5]) and in assay [1] (setting [6]) were 83.27 10^4 and 75.29 10^4, respectively.
In the same order, the values of `CCCCCc1cc2c(c(O)c1-c1nnc(C)o1)[C@@H]1C=C(C)CC[C@H]1C(C)(C)O2` [Ia24, (6aR,0aR)-6,6,9-Trimethyl-2-(5-methyl-1,3,4-oxadiazol-2-yl)-3-pentyl-6a,7,8,10a-tetrahydro-6H-benzo[c]chromen-1-ol] are 32.33 pg/mL, 28.53 pg/mL, “decreased TNF-α expression”, 77.88 10^4 and 62.41 10^4.
`C[C@@H]1C[C@H]2[C@@H]3CCC4=CC(=O)C=C[C@]4(C)[C@@]3(F)[C@@H](O)C[C@]2(C)[C@@]1(O)C(=O)CO` [Dex, dexamethasone, reference compound]: in the assay on TNF-α (1 μg/mL Dex), the “decrease of the level of TNF-α as compared to LPS-treated cells” value was determined as 2.5 folds. Further, in the assay with TNF-α (1 μg/ml Dex + 0.1 μg/ml LPS + 0.1% DMSO), the TNF-α was 5.38 pg/mL. The CTG signal in assay [1] (1 μg/ml Dex + 0.1 μg/ml LPS + 0.1% DMSO, 72 h) is recorded as 65.51 10^4.
